Experiments:
PRMT5/MEP50 = PRMT5/MEP50 (Homo sapiens, UniProt O14744); assay: MTase-Glo methyl transferase assay, Method A (Histone H4 peptide, 1 µM MTA, 24 h pre-incubation); assay type: biochemical; set-up: made in house; details: read-out: PRMT5 MTase Glo Ki (nM, Meth. A)
How it was run: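 PRMT5/MEP50 (10 nM) pre-incubated 24 h with compound, 5 µM SAM and 1 µM MTA, then reaction started with 1 µM Histone H4 (1-21) peptide and run 2 h at room temperature in Tris pH 8.0 buffer. SAH formed detected by MTase-Glo luminescence; IC50 and KI from dose-response curves.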

HCT116 MTAP null cells = assay: HCT116 proliferation assay, MTAP null cells (CellTiter-Glo, 6 days); assay type: cell-based; details: HCT116-MTAP null, 144 h, read-out: Protif_ HCT116-MTAP null IC50
How it was run: (§1)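 Cells grown in RPMI 1640 + 10% FBS, plated overnight, then exposed for 6 days to 8- or 9-point 1:3 compound dilutions (top 1 or 10 µM) with DMSO control. Viability read by CellTiter-Glo luminescence.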

HCT116 WT cells = assay: HCT116 proliferation assay, WT cells (CellTiter-Glo, 6 days); assay type: cell-based; details: Homo sapiens, HCT-116, 144 h, read-out: Prolif_HCT116-WT IC50
How it was run: as §1

Chain of PRMT5/MEP50 (O14744 whole entry): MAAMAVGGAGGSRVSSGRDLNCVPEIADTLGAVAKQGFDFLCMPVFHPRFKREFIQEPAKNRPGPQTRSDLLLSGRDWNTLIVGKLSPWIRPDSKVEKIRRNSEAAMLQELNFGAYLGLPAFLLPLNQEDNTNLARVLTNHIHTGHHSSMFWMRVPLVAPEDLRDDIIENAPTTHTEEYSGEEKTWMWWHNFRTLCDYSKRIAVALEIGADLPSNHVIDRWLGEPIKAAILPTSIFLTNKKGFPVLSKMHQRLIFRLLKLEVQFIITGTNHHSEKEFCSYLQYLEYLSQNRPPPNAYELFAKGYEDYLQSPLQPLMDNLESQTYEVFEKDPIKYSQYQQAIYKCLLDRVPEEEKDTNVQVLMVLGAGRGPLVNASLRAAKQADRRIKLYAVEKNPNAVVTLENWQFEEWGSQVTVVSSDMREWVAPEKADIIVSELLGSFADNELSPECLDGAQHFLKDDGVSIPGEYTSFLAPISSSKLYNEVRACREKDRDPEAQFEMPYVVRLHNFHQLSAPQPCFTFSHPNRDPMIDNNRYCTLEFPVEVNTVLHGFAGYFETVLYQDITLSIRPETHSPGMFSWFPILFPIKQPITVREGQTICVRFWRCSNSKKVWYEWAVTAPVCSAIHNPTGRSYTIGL
Chain of PRMT5/MEP50 (Q9BQA1 whole entry partner): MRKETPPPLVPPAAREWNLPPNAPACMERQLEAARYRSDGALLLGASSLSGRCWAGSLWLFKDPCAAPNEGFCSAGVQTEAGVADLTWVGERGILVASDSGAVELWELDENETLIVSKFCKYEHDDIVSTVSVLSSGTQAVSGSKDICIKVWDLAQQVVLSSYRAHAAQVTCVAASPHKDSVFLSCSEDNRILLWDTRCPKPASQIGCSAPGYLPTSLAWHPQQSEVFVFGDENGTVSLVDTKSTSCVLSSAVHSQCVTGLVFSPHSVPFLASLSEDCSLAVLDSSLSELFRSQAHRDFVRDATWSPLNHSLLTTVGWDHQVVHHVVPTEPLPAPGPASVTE

SMILES	Ki (PRMT5/MEP50)	IC50 (HCT116 MTAP null cells)	IC50 (HCT116 WT cells)
Cc1cc2cc(C(=O)N(Cc3ccc(Br)nn3)[C@H](C)c3ncccn3)c(F)cc2nc1N [Example 349, 2-amino-N-((6-bromo-3-pyridazinyl)methyl)-7-fluoro-3-methyl-N-((1R)-1-(2-pyrimidinyl)ethyl)-6-quinolinecarboxamide]	0.02 nM	36 nM	848 nM
Cc1cc2cc(C(=O)N(Cc3ccc(C(F)(F)F)cn3)[C@@H]3CCOc4ncccc43)ccc2nc1N (single isomer, unassigned) [Example 459]	0.25 nM	78 nM	2340 nM
Cc1cc2cc(C(=O)N(Cc3ccc(C#N)cn3)[C@H](C)c3ncccn3)c(Cl)cc2nc1N [Example 438, 2-amino-7-chloro-N-((5-cyano-2-pyridinyl)methyl)-3-methyl-N-((1R)-1-(2-pyrimidinyl)ethyl)-6-quinolinecarboxamide]	0.76 nM	368 nM	8790 nM
Cc1cc2cc(C(=O)N(Cc3ccc(C(F)(F)F)cn3)[C@@H](c3ncccn3)C3CC3)cnc2nc1N [Example 372, 7-amino-N-((R)-cyclopropyl(2-pyrimidinyl)methyl)-6-methyl-N-((5-(trifluoromethyl)-2-pyridinyl)methyl)-1,8-naphthyridine-3-carboxamide]	0.33 nM	124 nM	2410 nM
C[C@H](c1ncccn1)N(Cc1ccc(C(F)F)cn1)C(=O)c1ccc2nc(N)c(Br)cc2c1 [Example 410, 2-amino-3-bromo-N-((5-(difluoromethyl)-2-pyridinyl)methyl)-N-((1R)-1-(2-pyrimidinyl)ethyl)-6-quinolinecarboxamide]	0.04 nM	88 nM	5390 nM
Cc1cc2cc(C(=O)N(Cc3ccc(C(F)(F)F)nn3)[C@@H]3CCC[C@H]3O)ccc2nc1N [Example 363, 2-amino-N-((1R,2R)-2-hydroxycyclopentyl)-3-methyl-N-((6-(trifluoromethyl)pyridazin-3-yl)methyl)quinoline-6-carboxamide]	0.2 nM	326 nM	7160 nM
Cc1cc2cc(C(=O)N(Cc3ccc(C(F)(F)F)cn3)[C@@H]3CCOc4cccnc43)ccc2nc1N (single isomer, unassigned) [Example 456]	0.3 nM	39 nM	816 nM
CCOc1ccc(CN(C(=O)c2ccc3nc(N)c(C)cc3c2)[C@H](C)c2ncccn2)nn1 [Example 377, 2-amino-N-((6-ethoxy-3-pyridazinyl)methyl)-3-methyl-N-((1R)-1-(2-pyrimidinyl)ethyl)-6-quinolinecarboxamide]	0.07 nM	61 nM	2560 nM
Cc1cc2cc(C(=O)N(Cc3ccc(C#N)cn3)[C@@H](c3ncccn3)C3CC3)c(F)cc2nc1N [Example 421, 2-amino-N-((5-cyano-2-pyridinyl)methyl)-N-((R)-cyclopropyl(2-pyrimidinyl)methyl)-7-fluoro-3-methyl-6-quinolinecarboxamide]	0.54 nM	56 nM	1130 nM
Nc1nc2ncc(C(=O)N(Cc3ccc(C(F)(F)F)cn3)Cc3ncccc3F)cc2cc1Br [Example 321, 7-amino-6-bromo-N-((3-fluoro-2-pyridinyl)methyl)-N-((5-(trifluoromethyl)-2-pyridinyl)methyl)-1,8-naphthyridine-3-carboxamide]	0.15 nM	288 nM	> 10000 nM
Cc1cc2cc(C(=O)N(Cc3ccc(C(F)F)cn3)[C@H](C)c3ncc(F)cn3)ccc2nc1N (single isomer, unassigned) [Example 455]	0.16 nM	100 nM	2940 nM
Cc1cc2cc(C(=O)N(Cc3ccc(C(F)(F)F)cn3)Cc3ncn(C)n3)ccc2nc1N [Example 306, 2-amino-3-methyl-N-((1-methyl-1H-1,2,4-triazol-3-yl)methyl)-N-((5-(trifluoromethyl)-2-pyridinyl)methyl)-6-quinolinecarboxamide]	0.76 nM	401 nM	> 10000 nM
Cc1cc2cc(C(=O)N(Cc3ccc(C(F)(F)F)cn3)[C@@H](c3ncccn3)C3CC3)ccc2nc1N (single isomer, unassigned) [Example 452]	0.06 nM	22 nM	480 nM
Cc1cc2cc(C(=O)N(Cc3ccncn3)Cc3ccc(C(F)(F)F)cn3)ccc2nc1N [Example 335, 2-amino-3-methyl-N-(4-pyrimidinylmethyl)-N-((5-(trifluoromethyl)-2-pyridinyl)methyl)-6-quinolinecarboxamide]	0.73 nM	727 nM	> 10000 nM
Cc1cc2cc(C(=O)N(Cc3ccc(Br)cn3)[C@H](C)c3ncccc3Cl)ccc2nc1N [Example 394, 2-amino-N-((5-bromo-2-pyridinyl)methyl)-N-((1R)-1-(3-chloro-2-pyridinyl)ethyl)-3-methyl-6-quinolinecarboxamide]	0.12 nM	384 nM	> 10000 nM
Cc1cc2cc(C(=O)N(Cc3ccc(OC4COC4)cn3)[C@H](C)c3ncccn3)ccc2nc1N [Example 427, 2-amino-3-methyl-N-((5-(3-oxetanyloxy)-2-pyridinyl)methyl)-N-((1R)-1-(2-pyrimidinyl)ethyl)-6-quinolinecarboxamide]	0.1 nM	151 nM	4250 nM
[2H]C([2H])([2H])c1cc2cc(C(=O)N(Cc3ccc(C#N)cn3)[C@H](C)c3ncccn3)ccc2nc1N [Example 441, (R)-2-amino-N-((5-cyanopyridin-2-yl)methyl)-3-(methyl-d3)-N-(1-(pyrimidin-2-yl)ethyl)quinoline-6-carboxamide]	0.06 nM	107 nM	2810 nM
Cc1cc2cc(C(=O)N(Cc3ccc(Br)cn3)[C@@H]3CCCN(C)C3=O)ccc2nc1N (single isomer, unassigned) [Example 448]	0.32 nM	238 nM	5230 nM

Second part, the compound after the results:

Ki (PRMT5/MEP50)	IC50 (HCT116 MTAP null cells)	IC50 (HCT116 WT cells)	SMILES
0.34 nM	552 nM	> 10000 nM	C[C@H](c1ncn(C)n1)N(Cc1ccc(C(F)F)cn1)C(=O)c1cnc2nc(N)c(Br)cc2c1 (single isomer, unassigned) [Example 535]
0.35 nM	334 nM	6380 nM	Cc1cc2cc(C(=O)N(Cc3ccc(C#N)cn3)[C@@H]3CCCn4ncnc43)ccc2nc1N (single isomer, unassigned) [Example 523]
0.02 nM	44 nM	1460 nM	Cc1cc2cc(C(=O)N(Cc3ccc(Br)nn3)[C@H](C)c3ncn(C)n3)ccc2nc1N (single isomer, unassigned) [Example 536]
0.07 nM	147 nM	2190 nM	Cc1cc2cc(C(=O)N(Cc3ccc(C4CCOCC4)cn3)[C@H](C)c3ncccn3)ccc2nc1N [Example 559, 2-amino-3-methyl-N-((1R)-1-(2-pyrimidinyl)ethyl)-N-((5-(tetrahydro-2H-pyran-4-yl)-2-pyridinyl)methyl)-6-quinolinecarboxamide]
0.3 nM	895 nM	> 10000 nM	Cc1cc2cc(C(=O)N(Cc3ccc(C(=O)N(C)C)cn3)[C@H](C)c3ncccc3F)ccc2nc1N [Example 561, 2-amino-N-((5-(dimethylcarbamoyl)-2-pyridinyl)methyl)-N-((1R)-1-(3-fluoro-2-pyridinyl)ethyl)-3-methyl-6-quinolinecarboxamide]
0.14 nM	192 nM	2340 nM	COCC(COC)N(Cc1ccc(C(F)(F)F)cn1)C(=O)c1ccc2nc(N)c(C)cc2c1 [Example 511, 2-amino-N-(1,3-dimethoxy-2-propanyl)-3-methyl-N-((5-(trifluoromethyl)-2-pyridinyl)methyl)-6-quinolinecarboxamide]
0.21 nM	28 nM	248 nM	Nc1nc2ncc(C(=O)N(Cc3ccc(C(F)(F)F)cn3)[C@@H]3CCCc4nccnc43)cc2cc1Br (single isomer, unassigned) [Example 467]
1.09 nM	262 nM	4390 nM	Cc1cc2cc(C(=O)N(Cc3ccc(C4CC4)cn3)CC(C)C)ccc2nc1N [Example 546, 2-amino-N-((5-cyclopropyl-2-pyridinyl)methyl)-3-methyl-N-(2-methylpropyl)-6-quinolinecarboxamide]
0.1 nM	61 nM	1270 nM	Cc1cc2cc(C(=O)N(Cc3ccc(OC(F)F)cn3)[C@H](C)c3ncccn3)ccc2nc1N (single isomer, unassigned) [Example 491]
0.02 nM	19 nM	443 nM	Cc1cc2cc(C(=O)N(Cc3ccc(C4=CCN(C(=O)OC(C)(C)C)CC4)cn3)[C@H](C)c3ncccn3)ccc2nc1N [Example 547, tert-butyl (R)-6-((2-amino-3-methyl-N-(1-(pyrimidin-2-yl)ethyl)quinoline-6-carboxamido)methyl)-3’,6′-dihydro-[3,4′-bipyridine]-1′(2’H)-carboxylate]
0.18 nM	225 nM	4450 nM	Cc1cc2cc(C(=O)N(Cc3ccc(C(F)(F)F)cn3)[C@H](C)c3ncc(F)cn3)cnc2nc1N (single isomer, unassigned) [Example 481]
1.04 nM	889 nM	> 10000 nM	Cc1cc2cc(C(=O)N(CC(C)C)[C@H](C)c3ccc(C(F)(F)F)cn3)ccc2nc1N (single isomer, unassigned) [Example 472]

From patent US20230159510A1, “NOVEL PRMT5 INHIBITORS” (AMGEN INC., priority 2020, published 2023)
